Reference: patent US20250313560A1, “Novel bicyclic benzylamido pyridine derivatives as SOS1 inhibitors” (Boehringer Ingelheim International GmbH, priority 2024, published 2025)
Like-named read-outs stand apart in the source and are kept apart here.

Assays:
[1] = tested on: human hepatocytes; assay: Metabolic stability in human hepatocytes; settings: 1 μM test compound, 50% human serum, percentage of liver blood flow
Procedure: The metabolic degradation of a test compound is performed with hepatocytes in suspension. After recovery from cryopreservation, human hepatocytes are diluted in Dulbecco's modified eagle medium (supplemented with 3.5 μg glucagon/500 mL, 2.5 mg insulin/500 mL, 3.75 mg hydrocortisone/500 mL, 50% human serum) to obtain a final cell density of 1.0×10^6 cells/mL. Following a preincubation in a cell culture incubator (37° C., 10% CO2), test compound dissolved in DMSO is mixed with the hepatocyte suspension, resulting in a final test compound concentration of 1 μM and a final DMSO concentration of 0.05%.
The cell suspension is incubated at 37° C. (cell culture incubator, horizontal shaker) and samples are removed from the incubation after 0, 0.5, 1, 2, 4 and 6 hours. Samples are quenched with acetonitrile (containing internal standard) and pelleted by centrifugation. The supernatant is transferred to a deep-well plate and prepared for analysis of decline of parent compound by HPLC-MS/MS.
The percentage of remaining test compound is calculated using the peak area ratio (test compound/internal standard) of each incubation time point relative to the time point 0 peak area ratio. The log-transformed data are plotted versus incubation time, and the absolute value of the slope obtained by linear regression analysis is used to estimate in vitro half-life (T1/2).
CL_[sequence]_IN VIVO[mL/min/kg]=(CL_[sequence][μL/min/10^6cells]×hepatocellularity[10^6cells/g liver]×liver factor[g/kg body weight])/1000
Hepatic in vivo blood clearance (CL) is predicted according to the well-stirred liver model considering an average liver blood flow (QH) of 20.7 mL/min/kg:
CL[mL/min/kg]=CL_[sequence]_IN VIVO[mL/min/kg]×hepatic blood flow[mL/min/kg]/(CL_[sequence]_IN VIVO[mL/min/kg]+hepatic blood flow[mL/min/kg])
Results are expressed as percentage of hepatic blood flow:
QH[%]=CL[mL/min/kg]/hepatic blood flow[mL/min/kg])

[2] = target: SOS1 and KRAS G12D (Homo sapiens (Human), UniProt Q07889); assay: KRAS::SOS1 AlphaScreen binding assay (KRAS G12D); settings: average of at least two measurements
Procedure: (§1) Low IC50 values are indicative of high potency of the SOS1 inhibitor compound in this assay setting:
(§2) • GST-tagged SOS1 (564_1049_GST_TEV_ECO) produced in-house • 6xHis-Tev-K-RasG12D/G12C(1-169)Avi produced in-house • GDP (Sigma Cat No G7127) • AlphaLISA Glutathione Acceptor Beads (PerkinElmer, Cat No AL109) • AlphaScreen Streptavidin Donor Beads (PerkinElmer Cat No 6760002) • Assay plates: Proxiplate-384 PLUS, white (PerkinElmer, Cat No 6008289)
(§3) [formula] • KRAS::SOS1 GDP mix: • 7.5 nM (final assay concentration) K-RasG12C, 10 nM (final assay concentration) K-RasG12D, 10 μM (final assay concentration) GDP and 5 nM (final assay concentration) GST-SOS1 are mixed in assay buffer prior to use and kept at rt. Bead mix: • AlphaLISA Glutathione Acceptor Beads and AlphaScreen Streptavidin Donor Beads are mixed in the dark in assay buffer at a concentration of 10 μg/mL (final assay concentration) each prior to use and kept at rt.
(§4) Compounds are diluted to a final start concentration of 100 μM and are tested in duplicate. Assay-ready plates (ARPs) are generated using an Access Labcyte Workstation with a Labcyte Echo 550 or 555 acoustic dispenser. For compound a start concentration of 100 μM, 150 nL of compound solution is transferred per well in 11 concentrations in duplicate with serial 1:5 dilutions.
(§5) The assay is run using a fully automated robotic system in a darkened room below 100 Lux. 10 μL of KRAS::SOS1 GDP mix is added into columns 1-24 to the 150 nL of compound solution (final dilution in the assay 1:100, final DMSO concentration 1%).
(§6) After a 30 minute incubation time, 5 μL of bead mix is added into columns 1-23. Plates are kept at rt in a darkened incubator. After a further 60 minutes incubation, the signal is measured using a PerkinElmer Envision HTS Multilabel Reader using the AlphaScreen specifications from PerkinElmer. Each plate contains the following controls:
(§7) diluted DMSO+KRAS::SOS1 GDP mix+bead mix
(§8) diluted DMSO+KRAS::SOS1 GDP mix
(§9) Result calculation: IC50 values are calculated and analyzed using a 4 parametric logistic model.
(§10) Table 1: Inhibition values for KRAS G12C as well as for KRAS G12D. […] The value indicates an average value of at least two measurements.

[3] = tested on: ERK phosphorylation in NCI-H358 SOS2 KO cells (KRAS G12C); assay: Erk phosphorylation assay; format: cell-based, human; settings: EGF stimulated, average of at least two measurements, read-out: pERK IC50
Procedure: Low IC50 values are indicative of high potency of the SOS1 inhibitor compounds in this assay setting.
ERK phosphorylation assays are performed using the following human cell line: • NCI-H358 SOS2 KO (Hofmann, Gmachl, Ramharter et al, Cancer Discov. 2021, 11(1):142-15): human lung cancer with a KRAS G12C mutation;
NCI-H358 SOS2 KO are seeded at 50000 cells per well in 60 μL of DMEM with 2% FBS, in Greiner TC 384 plates. The cells are incubated overnight in an incubator at 37° C. and 5% CO2 in a humidified atmosphere. 60 nL compound solution (10 mM DMSO stock solution) is then added using a Beckman Coulter Labcyte Echo 550 device. After 50 min incubation in the aforementioned incubator, 5 nl EGF are added to each well for a final concentration of approx. 8 ng/mL using a Beckman Coulter Labcyte Echo 550 device and cells are incubated for another 10-15 minutes before lysis. The medium is removed, and the cells are lysed by addition of 20 μL of 1.6-fold lysis buffer from the AlphaLISA SureFire Ultra pERK1/2 (Thr202/Tyr204) Assay Kit with added protease inhibitors. After 20 minutes of incubation at rt with shaking, 6 μL of each lysate sample is transferred to a 384-well Proxiplate and analyzed for pERK (Thr202/Tyr204) with the AlphaLISA SureFire Ultra pERK1/2 (Thr202/Tyr204) Assay Kit. 3 μL Acceptor Mix and 3 μL Donor Mix are added under subdued light and incubated for 2 h at rt in the dark, before the signal is measured on a Perkin Elmer Envision plate reader using 384 AlphaScreen settings for Proxiplates. Data are fitted by iterative calculation with variable hill slope. The sigmoidal curve slope is fitted using a default fitting curve to ascertain IC50 values.
Table 2: Erk Phosphorylation assay. The value indicates an average value of at least two measurements.

[4] = target: SOS1 and KRAS G12C (Homo sapiens (Human), UniProt Q07889); assay: KRAS::SOS1 AlphaScreen binding assay (KRAS G12C); settings: average of at least two measurements
Procedure: as §1, §2, §3, §4, §5, §6, §7, §8, §9, §10

[5] = target: P450 3A4 (Homo sapiens (Human), UniProt P08684); assay: Cytochrome P450 isoenzyme inhibition assay (P450 3A4, midazolam); format: in vitro ADME; settings: human liver microsomes, Midazolam as substrate; read-out: CYP3A4 inhibition IC50
Procedure: For the following cytochrome P450 isoenzymes, these substrates and metabolic reactions are monitored: P450 3A4: hydroxylation of Midazolam (MDZ).
The final incubation volume contains TRIS buffer (0.1 M), MgCl2 (5 mM), a certain concentration of human liver microsomes dependent on the P450 isoenzyme measured (P450 3A4: 0.1 mg/ml) and a certain concentration of the individual substrate for each isoenzyme (P450 3A4: Midazolam 5 μM).
The effect of the test compound is determined at five different concentrations in duplicate (e.g. highest concentration 50 μM with subsequent serial 1:4 dilutions) or without test compound (high control). Following a short preincubation period, reactions are started with the cofactor (NADPH, 1 mM) and stopped by cooling the incubation down to 8° C. and subsequently by addition of one volume of ACN. An internal standard solution—usually the stable isotope of the formed metabolite—is added after quenching of incubations. Peak area analyte (=metabolite formed) and internal standard is determined by LC-MS/MS. The resulting peak area ratio analyte to internal standard in these incubations is compared to a control activity containing no test compound. Within each of the assay runs, the IC50 of a positive control inhibitor dependent on the P450 isoenzyme measured (P450 3A4: ketoconazole) is determined. The assay results are plotted against compound concentrations to calculated IC50 values (half maximal inhibitory concentrations) for inhibitory compounds utilizing Software IDBS E-WorkBook.
Table 4: Inhibition of P450 isoenzyme 3A^4.

[6] = target: CYP3A4 (Homo sapiens (Human), UniProt P08684); assay: Mechanism-based inhibition of CYP3A4 assay (MBI 3A4); format: in vitro ADME; settings: human liver microsomes, midazolam substrate, hydroxy-midazolam formation after 30 min preincubation relative to 0 min; for inhibition at 30 min: human, probe midazolam 15 μM (hydroxy-midazolam formation), read-out: MBI inhibition % ctrl. [%] with MDZ
Procedure: Mechanism-Based Inhibition of CYP3A4 assay (MBI 3A4): The mechanism-based inhibition towards CYP3A4 is assayed in human liver microsomes with midazolam as substrate. The test compounds and water control (wells w/o test compound) are preincubated in presence of NADPH (1 mM) with human liver microsomes (0.2 mg/mL) at a concentration of 0, 5 and 25 μM for 0, 10 and 30 min. After preincubation, the incubate is diluted 1:10 (to 0.02 mg/mL) and the substrate midazolam (15 μM) is added for the main incubation (10 min). The main incubation is quenched with ACN and the formation of hydroxy-midazolam is quantified via LC/MS-MS. The formation of hydroxy-midazolam from the 30 min preincubation relative to the formation from the 0 min preincubation is used as a readout. Values of less than 100% mean that the substrate midazolam is metabolized to a lower extent upon 30 min preincubation compared to 0 min preincubation. In general, low effects upon 30 min preincubation are desired (corresponding to values close to 100%/not different to the values determined with water control).
Table 5: Mechanism-based inhibition of P450 isoenzyme 3A4 with midazolam as substrate.

[7] = Homo sapiens, NCI-H358, NCI-H358 SOS2 KO cells

CYP3A4, sequence (P08684 whole entry): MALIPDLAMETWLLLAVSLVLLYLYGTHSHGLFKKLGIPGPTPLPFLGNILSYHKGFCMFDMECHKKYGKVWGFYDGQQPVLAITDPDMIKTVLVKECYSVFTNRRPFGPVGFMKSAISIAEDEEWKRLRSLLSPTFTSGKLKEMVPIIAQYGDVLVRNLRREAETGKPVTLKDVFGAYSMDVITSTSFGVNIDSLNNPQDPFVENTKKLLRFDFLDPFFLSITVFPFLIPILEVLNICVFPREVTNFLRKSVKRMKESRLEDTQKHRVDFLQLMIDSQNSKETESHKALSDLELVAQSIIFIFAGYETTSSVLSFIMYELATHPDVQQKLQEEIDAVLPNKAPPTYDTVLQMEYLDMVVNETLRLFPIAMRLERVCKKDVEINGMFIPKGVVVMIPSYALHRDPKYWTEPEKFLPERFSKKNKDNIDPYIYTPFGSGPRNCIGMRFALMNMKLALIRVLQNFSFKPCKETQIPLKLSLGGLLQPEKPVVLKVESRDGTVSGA
P450 3A4, sequence (P08684 whole entry): as above
SOS1 and KRAS G12D, sequence (Q07889 564-1049, stated change not applied): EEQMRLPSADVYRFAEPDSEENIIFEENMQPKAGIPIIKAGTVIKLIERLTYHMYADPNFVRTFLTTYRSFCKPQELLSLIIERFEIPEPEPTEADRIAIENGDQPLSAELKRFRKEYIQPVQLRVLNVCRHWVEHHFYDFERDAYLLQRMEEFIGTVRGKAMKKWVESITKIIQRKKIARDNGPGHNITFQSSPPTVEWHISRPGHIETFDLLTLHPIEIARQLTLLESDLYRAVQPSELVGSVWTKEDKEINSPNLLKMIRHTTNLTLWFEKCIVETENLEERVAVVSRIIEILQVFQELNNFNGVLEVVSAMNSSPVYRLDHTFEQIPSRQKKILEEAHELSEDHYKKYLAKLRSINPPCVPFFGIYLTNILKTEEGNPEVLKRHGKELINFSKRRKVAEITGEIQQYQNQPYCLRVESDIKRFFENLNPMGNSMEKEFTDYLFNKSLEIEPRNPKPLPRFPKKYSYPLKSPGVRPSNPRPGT
SOS1 and KRAS G12C, sequence (Q07889 564-1049, stated change not applied): as above

| Hepatic clearance - QH[%] in human hepatocytes [1] [%] | IC50 [2] [nM] | IC50 ([3]; NCI-H358 SOS2 KO cells) [nM] | IC50 [4] [nM] | IC50 [5] [nM] | MBI inhibition % ctrl. [%] with MDZ [6] [%] | IC50 [3, 7] [nM] | Structure (SMILES) | inhibition at 30 min [6] [%] |
| --- | --- | --- | --- | --- | --- | --- | --- | --- |
| 13 | 28 | 94 | 39 | > 50000 | – | – | C[C@@H](NC(=O)c1cc(N2CCC(N3CCCC(O)CC3)CC2)c2ncnn2c1)c1cccc(C(F)F)c1F (single isomer, unassigned) [Example E17a] | – |
| – | 35 | 101 | 34 | > 50000 | 94 | – | C[C@@H](NC(=O)c1cc(N2CCC(N3CCCC(O)CC3)CC2)c2ncnn2c1)c1cccc(C(F)(F)F)c1F (single isomer, unassigned) [Example E43b] | – |
| 21 | 54 | – | 52 | > 50000 | – | 288 | C[C@@H](NC(=O)c1cc(N2CCC(N(C)CC3(O)CC3)CC2)c2ncnn2c1)c1cccc(C(F)F)c1F [Example E13] | – |
| 31 | 51 | – | 69 | > 50000 | – | 490 | C[C@@H](NC(=O)c1cc(N2CCC(N3CCO[C@H](CO)C3)CC2)c2ncnn2c1)c1cccc(C(F)F)c1F [Example E14] | – |
| 31 | 46 | – | 68 | > 50000 | – | 554 | C[C@@H](NC(=O)c1cc(N2CCC(N3CCO[C@@H](CO)C3)CC2)c2ncnn2c1)c1cccc(C(F)F)c1F [Example E15] | – |
| 15 | 73 | – | 80 | > 50000 | – | 326 | C[C@@H](NC(=O)c1cc(N2CCC(N3CCC4(CC4)C3)CC2)c2ncnn2c1)c1cccc(C(F)(F)F)c1F [Example E33] | – |
| 23 | 43 | – | 49 | > 50000 | – | 250 | C[C@@H](NC(=O)c1cc(N2CCC(N3CCCCC3)CC2)c2ncnn2c1)c1cccc(C(F)(F)F)c1F [Example E49] | – |

Second part, the compound before the results:

| Structure (SMILES) | Hepatic clearance - QH[%] in human hepatocytes [1] [%] | IC50 [2] [nM] | IC50 ([3]; NCI-H358 SOS2 KO cells) [nM] | IC50 [4] [nM] | IC50 [5] [nM] | MBI inhibition % ctrl. [%] with MDZ [6] [%] | IC50 [3, 7] [nM] | inhibition at 30 min [6] [%] |
| --- | --- | --- | --- | --- | --- | --- | --- | --- |
| C[C@@H](NC(=O)c1cc(N2CCC(N3CC4CC4C3CO)CC2)c2ncnn2c1)c1cccc(C(F)F)c1F (single isomer, unassigned) [Example cis-E11a] | 38 | 15 | – | 22 | > 50000 | – | 173 | – |
| C[C@@H](NC(=O)c1cc(N2CCC(N3CC4CC4C3CO)CC2)c2ncnn2c1)c1cccc(C(F)F)c1F (single isomer, unassigned) [Example cis-E11b] | 27 | 19 | 145 | 28 | > 50000 | – | – | – |
| C[C@@H](NC(=O)c1cc(N2CCC(NC3COCC3O)CC2)c2ncnn2c1)c1cccc(C(F)(F)F)c1F (single isomer, unassigned) [Example cis-E41a] | 37 | 38 | 463 | 50 | > 50000 | – | – | – |
| C[C@@H](NC(=O)c1cc(N2CCC3CCNC3C2)c2ncnn2c1)c1cccc(C(F)(F)F)c1F (single isomer, unassigned) [Example cis-E52a] | 7 | 58 | 115 | 59 | > 50000 | – | – | – |
| C[C@@H](NC(=O)c1cc(N2CCC(NC3CCCC3(C)O)CC2)c2ncnn2c1)c1cccc(C(F)(F)F)c1F (single isomer, unassigned) [Example trans-E53a] | 45 | 24 | 143 | 24 | > 50000 | – | – | – |
| C[C@@H](NC(=O)c1cc([C@H]2CC[C@H](N3CCC(F)C(O)C3)CC2)c2ncnn2c1)c1cccc(C(F)(F)F)c1F (single isomer, unassigned) [Example trans-E70a] | 25 | 34 | – | 29 | > 50000 | – | 259 | – |
| C[C@@H](NC(=O)c1cc(N2CC3CCC(C2)N3C)c2nncn2c1)c1cccc(C(F)(F)F)c1F [Example E76] | – | 36 | – | 49 | > 50000 | – | 230 | 84 |
| CC(C)N1CC=C(c2cc(C(=O)N[C@H](C)c3cccc(C(F)(F)F)c3F)cn3cnnc23)CC1 [Example E83] | – | 26 | – | 30 | > 50000 | – | 132 | 86 |
